Non-standard residues stand in square brackets, D forms with d. Residues, ends and D or L forms follow the SMILES beside them. *: point of attachment. Sta = CC(C)C[C@H](N)[C@@H](O)CC(=O)O; Isovaleryl = CC(C)CC(=O)*
target: T1, Paramecium cathepsin L isozymes (30 kDa and 33 kDa) (Paramecium tetraurelia, UniProt Q94714); assay: Effect of class-specific protease inhibitors on the purified Paramecium proteases (cathepsin L assay); type: biochemical; conditions: 32P phosphorylase a as substrate
T1 construct: identical enzyme proteins were involved, with the proteins possibly only being processed differently; from tissue; host or cells: Paramecium tetraurelia mass cultures (cell homogenate)
T1 sequence (Q94714 110-314): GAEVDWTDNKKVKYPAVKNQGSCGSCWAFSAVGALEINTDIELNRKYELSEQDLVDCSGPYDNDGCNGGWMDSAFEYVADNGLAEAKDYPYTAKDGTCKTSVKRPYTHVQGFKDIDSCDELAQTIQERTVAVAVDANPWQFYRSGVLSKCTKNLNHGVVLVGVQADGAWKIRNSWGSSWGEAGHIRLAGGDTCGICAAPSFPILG
Description: ^32P-Phosphorylase a (approx. 5×10^4 cpm/min) was used as substrate. A test mixture (30 μl) contained 10 μM substrate, 12 mM Tris/HCl (pH 7.0), 50 μM EDTA, 10 mM 2-mercaptoethanol, 5 mM caffeine and 6.7 μg of BSA. The reaction was stopped, after incubating at 30° C. for 10 minutes, by adding 200 μl of trichloroacetic acid (20% w/v). The radioactivity of the non-precipitable peptides was determined in the supernatant following centrifugation. One unit of enzyme activity corresponds to the quantity which liberates 1 μmol of soluble ^32P-phosphopeptide/min.
All the purification steps were carried out at 4° C. The cells were homogenized in 50 mM Tris/HCl (pH 7.0), 5 mM EDTA using a French press. Cell debris were removed by centrifugation (23,000×g, 60 min; 100,000×g, 60 min). The supernatant was loaded onto a DEAE Sepharose® column which was equilibrated with 20 mM Tris/HCl (pH 7.0). About half the protease activity eluted with the flowthrough. The column was washed with 250 mM NaCl. The remaining protease activity was eluted with 450 mM KCl. After that, the active fractions were purified through a Sephacryl® S-100 HR column. The protease eluted at approximately 27 kDa. The pooled active fractions were subsequently loaded onto a mono Q column. Elution was carried out using a linear gradient (60 ml of from 100 to 350 mM NaCl). Two active proteases (30 kDa and 33 kDa) were separated in this step. Purity was examined by means of SDS-PAGE. When using ^32P phosphorylase a as substrate, the pH optimum of the two isozymes was 6.5; the temperature optimum was 56° C.

Molecule | effect of inhibitor on protease activity
Cc1ccc(S(=O)(=O)NC(CCCCN)C(=O)CCl)cc1 (stereo not drawn) [TLCK] | reduced the activity drastically
CC(C)CC(=O)N[C@H](C(=O)N[C@H](C(=O)N[C@@H](CC(C)C)[C@@H](O)CC(=O)N[C@@H](C)C(=O)N[C@@H](CC(C)C)[C@@H](O)CC(=O)O)C(C)C)C(C)C [pepstatin] (Isovaleryl-VV[Sta]A[Sta]-OH) | no inhibitory effect
O=C(O)CN(CCN(CC(=O)O)CC(=O)O)CC(=O)O [EDTA] | no inhibitory effect
aprotinin | no inhibitory effect
cystatin | reduced the activity drastically
CC(=O)N[C@@H](CC(C)C)C(=O)N[C@@H](CC(C)C)C(=O)N[C@H](C=O)CCCNC(=N)N [leupeptin] | reduced the activity drastically
